{"source": "ChEMBL document CHEMBL4190222", "about": "“Sulawesins A-C, Furanosesterterpene Tetronic Acids That Inhibit USP7, from a Psammocinia sp. Marine Sponge” (J Nat Prod, 2017)", "key": {"[1]": {"target": "T1, Ubiquitin carboxyl-terminal hydrolase 7 (Homo sapiens, UniProt Q93009)", "assay": "Inhibition of recombinant His6-tagged human USP7 expressed in insect expression system […] using ubiquitin-Rh110 as substrate preincubated for 30 mins followed by substrate addition measured after 180 mins by fluorescence assay"}, "[2]": {"target": "T1, Ubiquitin carboxyl-terminal hydrolase 7", "assay": "Inhibition of recombinant His6-tagged human USP7 expressed in insect expression system using ubiquitin-Rh110 as substrate preincubated for 30 mins followed by substrate addition measured after 180 mins by fluorescence assay"}}, "note": "Activity calls are given as the source filed them. No cut-off for these calls is given here."}
{"smiles": "CCN1C(=O)C=CC1=O", "values": [{"measurement": "inhibition", "setting": "[1]", "value": "Active"}]}
{"smiles": "CC1=C(O)/C(=C/C(C)CC/C=C(/C)CCCC2=CC(=O)[C@@H](c3ccoc3)[C@@H]2O)OC1=O", "note": "(mixture of isomers)", "values": [{"measurement": "IC50", "setting": "[2]", "value": 4.6, "unit": "µM"}]}
{"smiles": "CC1=C(O)/C(=C/C(C)CCC/C(C)=C/CCC2=CC(=O)[C@@H](c3ccoc3)[C@@H]2O)OC1=O", "note": "(mixture of isomers)", "values": [{"measurement": "IC50", "setting": "[2]", "value": 2.8, "unit": "µM"}]}
{"smiles": "CC1=C(O)/C(=C/C(C)CC/C=C(/C)CCCc2coc(Cc3ccoc3)c2)OC1=O", "note": "(mixture of isomers)", "values": [{"measurement": "IC50", "setting": "[2]", "value": 3.5, "unit": "µM"}]}
{"smiles": "CC1=C(O)/C(=C/C(C)CCC/C(C)=C/CCc2coc(Cc3ccoc3)c2)OC1=O", "note": "(racemic)", "values": [{"measurement": "IC50", "setting": "[2]", "value": 2.7, "unit": "µM"}]}
